Assay results from BindingDB's records for patent US20230312550 (Astrazeneca, 2023).

What follows are molecules tested against T1, Prolyl endopeptidase FAP (Homo sapiens, UniProt Q12884) (assay: hFAP Binding Assay). Conditions: not given.
T1 sequence (Q12884 whole entry): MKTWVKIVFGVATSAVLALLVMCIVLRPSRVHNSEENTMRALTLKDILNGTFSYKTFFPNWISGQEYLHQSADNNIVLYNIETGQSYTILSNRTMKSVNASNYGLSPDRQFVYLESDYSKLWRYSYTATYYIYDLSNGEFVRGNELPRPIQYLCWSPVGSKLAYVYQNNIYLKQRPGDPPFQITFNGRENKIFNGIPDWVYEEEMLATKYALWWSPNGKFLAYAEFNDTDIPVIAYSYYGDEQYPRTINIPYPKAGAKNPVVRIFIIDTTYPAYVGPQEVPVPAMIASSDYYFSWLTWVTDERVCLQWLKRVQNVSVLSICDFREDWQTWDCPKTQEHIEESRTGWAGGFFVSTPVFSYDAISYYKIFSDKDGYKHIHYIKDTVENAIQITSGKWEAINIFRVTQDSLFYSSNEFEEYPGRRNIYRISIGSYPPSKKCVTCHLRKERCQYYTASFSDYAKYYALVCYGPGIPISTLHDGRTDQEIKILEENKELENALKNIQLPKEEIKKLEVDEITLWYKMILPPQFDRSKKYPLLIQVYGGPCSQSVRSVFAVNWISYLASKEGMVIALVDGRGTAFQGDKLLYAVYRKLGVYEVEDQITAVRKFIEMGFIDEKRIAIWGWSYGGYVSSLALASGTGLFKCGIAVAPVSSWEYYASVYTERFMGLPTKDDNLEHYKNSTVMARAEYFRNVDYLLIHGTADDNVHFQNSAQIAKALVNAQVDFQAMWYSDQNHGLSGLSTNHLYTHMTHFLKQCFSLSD

SMILES	koff [s⁻¹]
N#C[C@@H]1CSCN1C(=O)CNC(=O)c1ccnc2ccc(N3C[C@@H]4CCC[C@@H]43)cc12 (mixture of isomers) [US20230312550, Example 156]	6.6e-05
C[C@H]1CCN(c2ccc3nccc(C(=O)NCC(=O)N4CSC[C@H]4C#N)c3c2)C1=O (single isomer, unassigned) [US20230312550, Example 201]	0.0001
N#C[C@@H]1CSCN1C(=O)CNC(=O)c1ccnc2ccc(N3CCCCO3)cc12 [US20230312550, Example 1]	0.00014
N#C[C@@H]1CSCN1C(=O)CNC(=O)c1c(F)cnc2ccc(N3CCOCC3)cc12 [US20230312550, Example 2]	0.0038
N#C[C@@H]1CSCN1C(=O)CNC(=O)c1ccnc2ccc(N3CCSCC3)cc12 [US20230312550, Example 3]	0.0004
N#C[C@@H]1CSCN1C(=O)CNC(=O)c1ccnc2ccc(N3CCOC(F)(F)C3)cc12 [US20230312550, Example 4]	9.4e-05
CC1(C)CCN(c2ccc3nccc(C(=O)NCC(=O)N4CSC[C@H]4C#N)c3c2)C1=O [US20230312550, Example 12]	6.4e-05
CC1(C)CCCN(c2ccc3nccc(C(=O)NCC(=O)N4CSC[C@H]4C#N)c3c2)C1=O [US20230312550, Example 15]	4.6e-05
CC1(C)OCCN(c2ccc3nccc(C(=O)NCC(=O)N4CSC[C@H]4C#N)c3c2)C1=O [US20230312550, Example 16]	4.1e-05
N#C[C@@H]1CSCN1C(=O)CNC(=O)c1ccnc2ccc(N3CC4(CCC4)C3)cc12 [US20230312550, Example 17]	0.00012
N#C[C@@H]1CSCN1C(=O)CNC(=O)c1ccnc2ccc(N3CCC34CCC4)cc12 [US20230312550, Example 19]	6.6e-05
CC1(C)CCN1c1ccc2nccc(C(=O)NCC(=O)N3CSC[C@H]3C#N)c2c1 [US20230312550, Example 20]	0.00012

Continued, values first:

koff [s⁻¹]	SMILES
9.8e-05	N#C[C@@H]1CSCN1C(=O)CNC(=O)c1ccnc2ccc(N3C[C@@H]4CC[C@H]3C4)cc12 (mixture of isomers) [US20230312550, Example 210]
18	N#C[C@@H]1CSCN1C(=O)CNC(=O)c1ccnc2ccc(N3CCOc4ccccc43)cc12 [US20230312550, Example 6]
7.5e-05	C[C@@H]1CN(c2ccc3nccc(C(=O)NCC(=O)N4CSC[C@H]4C#N)c3c2)C[C@H](C)[C@@H]1O [US20230312550, Example 7]
5.6e-05	Cc1cc2nccc(C(=O)NCC(=O)N3CSC[C@H]3C#N)c2cc1N1CCOCC1 [US20230312550, Example 10]
7.6e-05	CC1(C)CN(c2ccc3nccc(C(=O)NCC(=O)N4CSC[C@H]4C#N)c3c2)C(=O)O1 [US20230312550, Example 13]
6.4e-05	N#C[C@@H]1CSCN1C(=O)CNC(=O)c1ccnc2ccc(N3CCCCC3=O)cc12 [US20230312550, Example 14]
5.9e-05	CC1(C)COC12CN(c1ccc3nccc(C(=O)NCC(=O)N4CSC[C@H]4C#N)c3c1)C2 [US20230312550, Example 18]
0.0002	N#C[C@@H]1CSCN1C(=O)CNC(=O)c1ccnc2ccc(N3CC(F)C3)cc12 [US20230312550, Example 21]
0.00018	N#C[C@@H]1CSCN1C(=O)CNC(=O)c1ccnc2ccc(N3CC(F)(F)C3)cc12 [US20230312550, Example 23]
0.00011	CC1CN(c2ccc3nccc(C(=O)NCC(=O)N4CSC[C@H]4C#N)c3c2)C1 [US20230312550, Example 25]
6.5e-05	N#C[C@@H]1CSCN1C(=O)CNC(=O)c1ccnc2ccc(N3CC(C(F)(F)F)C3)cc12 [US20230312550, Example 26]
0.00011	N#C[C@@H]1CSCN1C(=O)CNC(=O)c1ccnc2ccc(N3CC(C(F)F)C3)cc12 [US20230312550, Example 28]
6.1e-05	COCC1(C)CN(c2ccc3nccc(C(=O)NCC(=O)N4CSC[C@H]4C#N)c3c2)C1 [US20230312550, Example 29]

Same assay, conditions: read-out: kon (M-1-s-1)

SMILES	kon [M⁻¹ s⁻¹]
N#C[C@@H]1CSCN1C(=O)CNC(=O)c1ccnc2ccc(N3C[C@@H]4CCC[C@@H]43)cc12 (mixture of isomers) [US20230312550, Example 156]	1.2e+06
C[C@H]1CCN(c2ccc3nccc(C(=O)NCC(=O)N4CSC[C@H]4C#N)c3c2)C1=O (single isomer, unassigned) [US20230312550, Example 201]	1.8e+06
N#C[C@@H]1CSCN1C(=O)CNC(=O)c1ccnc2ccc(N3CCCCO3)cc12 [US20230312550, Example 1]	730000
N#C[C@@H]1CSCN1C(=O)CNC(=O)c1c(F)cnc2ccc(N3CCOCC3)cc12 [US20230312550, Example 2]	410000
N#C[C@@H]1CSCN1C(=O)CNC(=O)c1ccnc2ccc(N3CCSCC3)cc12 [US20230312550, Example 3]	4.1e+06
N#C[C@@H]1CSCN1C(=O)CNC(=O)c1ccnc2ccc(N3CCOC(F)(F)C3)cc12 [US20230312550, Example 4]	1.2e+06
CC1(C)CCN(c2ccc3nccc(C(=O)NCC(=O)N4CSC[C@H]4C#N)c3c2)C1=O [US20230312550, Example 12]	1.9e+06
CC1(C)CCCN(c2ccc3nccc(C(=O)NCC(=O)N4CSC[C@H]4C#N)c3c2)C1=O [US20230312550, Example 15]	490000
CC1(C)OCCN(c2ccc3nccc(C(=O)NCC(=O)N4CSC[C@H]4C#N)c3c2)C1=O [US20230312550, Example 16]	740000
N#C[C@@H]1CSCN1C(=O)CNC(=O)c1ccnc2ccc(N3CC4(CCC4)C3)cc12 [US20230312550, Example 17]	8.3e+06
N#C[C@@H]1CSCN1C(=O)CNC(=O)c1ccnc2ccc(N3CCC34CCC4)cc12 [US20230312550, Example 19]	430000
CC1(C)CCN1c1ccc2nccc(C(=O)NCC(=O)N3CSC[C@H]3C#N)c2c1 [US20230312550, Example 20]	4.2e+06

Next, values leading:

kon [M⁻¹ s⁻¹]	SMILES
3.8e+06	N#C[C@@H]1CSCN1C(=O)CNC(=O)c1ccnc2ccc(N3C[C@@H]4CC[C@H]3C4)cc12 (mixture of isomers) [US20230312550, Example 210]
740000	C[C@@H]1CN(c2ccc3nccc(C(=O)NCC(=O)N4CSC[C@H]4C#N)c3c2)C[C@H](C)[C@@H]1O [US20230312550, Example 7]
370000	Cc1cc2nccc(C(=O)NCC(=O)N3CSC[C@H]3C#N)c2cc1N1CCOCC1 [US20230312550, Example 10]
9.2e+06	CC1(C)CN(c2ccc3nccc(C(=O)NCC(=O)N4CSC[C@H]4C#N)c3c2)C(=O)O1 [US20230312550, Example 13]
1.3e+06	N#C[C@@H]1CSCN1C(=O)CNC(=O)c1ccnc2ccc(N3CCCCC3=O)cc12 [US20230312550, Example 14]
1.4e+06	CC1(C)COC12CN(c1ccc3nccc(C(=O)NCC(=O)N4CSC[C@H]4C#N)c3c1)C2 [US20230312550, Example 18]
3e+06	N#C[C@@H]1CSCN1C(=O)CNC(=O)c1ccnc2ccc(N3CC(F)C3)cc12 [US20230312550, Example 21]
2.1e+06	N#C[C@@H]1CSCN1C(=O)CNC(=O)c1ccnc2ccc(N3CC(F)(F)C3)cc12 [US20230312550, Example 23]
1.4e+06	CC1CN(c2ccc3nccc(C(=O)NCC(=O)N4CSC[C@H]4C#N)c3c2)C1 [US20230312550, Example 25]
1.3e+06	N#C[C@@H]1CSCN1C(=O)CNC(=O)c1ccnc2ccc(N3CC(C(F)(F)F)C3)cc12 [US20230312550, Example 26]
1.1e+06	N#C[C@@H]1CSCN1C(=O)CNC(=O)c1ccnc2ccc(N3CC(C(F)F)C3)cc12 [US20230312550, Example 28]
1.1e+06	COCC1(C)CN(c2ccc3nccc(C(=O)NCC(=O)N4CSC[C@H]4C#N)c3c2)C1 [US20230312550, Example 29]
